Publication PMC3454389, “Mining the Sinorhizobium meliloti Transportome to Develop FRET Biosensors for Sugars, Dicarboxylates and Cyclic Polyols” (PLoS ONE, 2012)

Experiments:
SMb20712-CY = target: T1, SMb20712-CY (Sinorhizobium meliloti, UniProt Q926E6); assay: FRET biosensor SMb20712-CY, in vitro ligand titration; type: binding
T1 sequence (Q926E6 21-309): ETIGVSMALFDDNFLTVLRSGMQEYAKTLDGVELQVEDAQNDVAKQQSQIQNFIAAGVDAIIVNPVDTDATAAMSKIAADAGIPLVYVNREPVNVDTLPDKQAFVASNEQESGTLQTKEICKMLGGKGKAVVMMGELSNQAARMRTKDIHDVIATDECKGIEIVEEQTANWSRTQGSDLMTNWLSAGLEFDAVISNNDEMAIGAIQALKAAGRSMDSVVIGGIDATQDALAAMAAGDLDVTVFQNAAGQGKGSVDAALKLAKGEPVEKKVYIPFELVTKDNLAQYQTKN
Description: (§1) Ligand-induced FRET ratio changes of purified FRET biosensor were screened using a LS55 luminescence spectrometer (PerkinElmer Instruments). Excitation (ex.) was at (λ/slit width) 433/10 nm (CFP) or 549/10 nm (OFP). Emission (em.) was measured at 475/10 nm (CFP), 527/10 nm (YFP), 573/10 nm (OFP) and 644/10 nm (RFP). To confirm that Aphrodite and mKate2 were properly folded their fluorescence was individually tested by direct excitation at 510/6 nm and 588/10 nm respectively.
(§2) Affinity constants (Kd) of FRET biosensors with specific ligands were established using a monochromator microplate reader (Safire, Tecan, Switzerland; CFP ex.: (λ\bandwidth) 433/12 nm, em.: 475/12 nm; YFP em.: 527/12 nm. OFP ex.: 533/12 nm, em.: 563/12 nm; RFP em.: 615/12 nm). Proteins were diluted to give relative fluorescence units (RFU) in the detection range of 30,000 to 50,000 RFU at a gain of 90 to 100, and then were added to a dilution series (10^−3 to 10^−11 M) of ligand in Tris-HCl (pH 8.5, 50 mM). The change in relative emission intensities at 527/477 nm (YFP/CFP) or 615/563 nm (RFP/OFP) was used to determine Kd by fitting the titration curves to a single-site-binding isotherm: [drawing 1] with: R, ratio; Rapo, ratio without ligand; Rsat, ratio at saturation of ligand; n, number of equal binding sites; [L], ligand concentration. Non-linear regression was used to fit the curves using SigmaPlot 11 (Systat Software Inc.) (Hill equation, 4 Parameters, b = 1). All measurements were done in quadruplicate.

rcc03024-CY (DctP) = target: T2, rcc03024-CY (DctP) (Rhodobacter capsulatus, UniProt P37735); assay: FRET biosensor rcc03024-CY, in vitro ligand titration; type: binding; conditions: for Kd: pCYS (pLMB414), Tris-HCl pH 8.5
T2 construct: made in house; host or cells: E. coli Rosetta2
T2 sequence (P37735 27-333): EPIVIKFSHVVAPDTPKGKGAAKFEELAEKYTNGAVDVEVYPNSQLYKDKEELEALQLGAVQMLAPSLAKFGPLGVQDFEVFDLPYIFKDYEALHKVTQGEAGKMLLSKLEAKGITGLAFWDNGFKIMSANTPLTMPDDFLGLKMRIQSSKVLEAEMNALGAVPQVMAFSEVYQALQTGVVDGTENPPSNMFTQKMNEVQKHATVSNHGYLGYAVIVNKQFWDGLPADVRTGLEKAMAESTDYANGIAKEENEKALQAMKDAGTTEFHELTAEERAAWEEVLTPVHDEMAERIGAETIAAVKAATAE
Source text: Ligand-induced FRET ratio changes of purified FRET biosensor were screened using a LS55 luminescence spectrometer (PerkinElmer Instruments).
Non-linear regression was used to fit the curves using SigmaPlot 11 (Systat Software Inc.) (Hill equation, 4 Parameters, b = 1). All measurements were done in quadruplicate.

SMb20036-CY = SMb20036-CY (Sinorhizobium meliloti, UniProt Q92XC3); assay: biochemical; type: binding; conditions: for change in FRET ratio on addition of compound: compounds similar in structure to D-quinic acid
Chain of SMb20036-CY (Q92XC3 entry or part of it): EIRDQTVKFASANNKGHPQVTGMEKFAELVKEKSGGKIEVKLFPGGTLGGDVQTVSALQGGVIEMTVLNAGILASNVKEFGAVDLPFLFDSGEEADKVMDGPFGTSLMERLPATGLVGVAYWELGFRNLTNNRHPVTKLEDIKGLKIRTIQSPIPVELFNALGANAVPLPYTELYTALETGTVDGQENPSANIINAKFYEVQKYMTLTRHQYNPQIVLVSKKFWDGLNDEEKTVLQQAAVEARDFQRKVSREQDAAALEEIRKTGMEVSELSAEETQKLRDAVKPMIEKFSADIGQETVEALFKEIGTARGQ
Description: as §1, §2

rcc03024-RO = target: T3, rcc03024-RO (Rhodobacter capsulatus, UniProt P37735); assay: rcc03024-RO, FRET ratio change on ligand; type: binding
T3 construct: made in house; host or cells: E. coli Rosetta2
T3 sequence (P37735 27-333): T2 sequence (P37735 27-333)
Description: as §1
as §2, with “Non-linear regression was used to fit the curves using SigmaPlot 11 (Systat Software Inc.) (Hill equation, 4 Parameters, b = 1). All measurements were done in quadruplicate.” left out

SMb20036 FBS-RO version = assay: FBS-RO version of SMb20036 biosensor, FRET ratio change on ligand; type: binding, Sinorhizobium meliloti; conditions: FBS-RO version (RFP/OFP) of SMb20036
Description: as §1
as §2, with “Non-linear regression was used to fit the curves using SigmaPlot 11 (Systat Software Inc.) (Hill equation, 4 Parameters, b = 1). All measurements were done in quadruplicate.” left out

SMc04259-CY = SMc04259-CY (Sinorhizobium meliloti, UniProt Q92P64); assay: FRET biosensor SMc04259-CY, in vitro ligand titration; type: binding; conditions: SMc04259-CY
Chain of SMc04259-CY (Q92P64 entry or part of it): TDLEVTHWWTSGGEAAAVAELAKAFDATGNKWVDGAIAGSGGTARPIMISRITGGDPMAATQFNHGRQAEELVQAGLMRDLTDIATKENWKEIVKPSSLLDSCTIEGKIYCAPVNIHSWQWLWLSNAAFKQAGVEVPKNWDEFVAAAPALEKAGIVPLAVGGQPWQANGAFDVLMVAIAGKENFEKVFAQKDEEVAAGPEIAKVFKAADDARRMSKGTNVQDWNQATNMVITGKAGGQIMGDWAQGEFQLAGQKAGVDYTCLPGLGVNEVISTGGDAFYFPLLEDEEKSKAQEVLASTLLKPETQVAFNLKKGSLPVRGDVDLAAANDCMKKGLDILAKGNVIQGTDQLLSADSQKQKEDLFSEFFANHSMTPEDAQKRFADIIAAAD
Description: as §1, §2

SMc02324-CY = SMc02324-CY (Sinorhizobium meliloti, UniProt Q92S11); assay: FRET biosensor SMc02324-CY, in vitro ligand titration; type: binding
Chain of SMc02324-CY (Q92S11 entry or part of it): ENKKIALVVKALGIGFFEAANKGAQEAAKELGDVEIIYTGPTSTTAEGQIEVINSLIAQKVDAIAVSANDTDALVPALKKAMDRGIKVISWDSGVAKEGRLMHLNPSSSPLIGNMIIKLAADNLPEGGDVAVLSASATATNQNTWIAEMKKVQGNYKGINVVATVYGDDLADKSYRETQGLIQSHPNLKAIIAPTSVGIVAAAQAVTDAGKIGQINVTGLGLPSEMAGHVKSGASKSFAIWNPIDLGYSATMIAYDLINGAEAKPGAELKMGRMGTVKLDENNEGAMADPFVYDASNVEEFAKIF
Description: as §1, §2

SMc02324-RO = SMc02324-RO (Sinorhizobium meliloti, UniProt Q92S11); assay: FRET biosensor SMc02324-RO, in vitro ligand titration; type: binding; conditions: pROS (pLMB523), Tris-HCl pH 8.5
Chain of SMc02324-RO (Q92S11 entry or part of it): as above
Description: as §1
as §2, with “Non-linear regression was used to fit the curves using SigmaPlot 11 (Systat Software Inc.) (Hill equation, 4 Parameters, b = 1). All measurements were done in quadruplicate.” left out

SMc02774-CY = SMc02774-CY (Sinorhizobium meliloti, UniProt Q92TD7); assay: FRET biosensor SMc02774-CY, in vitro ligand titration; type: binding; conditions: SMc02774-CY
Chain of SMc02774-CY (Q92TD7 entry or part of it): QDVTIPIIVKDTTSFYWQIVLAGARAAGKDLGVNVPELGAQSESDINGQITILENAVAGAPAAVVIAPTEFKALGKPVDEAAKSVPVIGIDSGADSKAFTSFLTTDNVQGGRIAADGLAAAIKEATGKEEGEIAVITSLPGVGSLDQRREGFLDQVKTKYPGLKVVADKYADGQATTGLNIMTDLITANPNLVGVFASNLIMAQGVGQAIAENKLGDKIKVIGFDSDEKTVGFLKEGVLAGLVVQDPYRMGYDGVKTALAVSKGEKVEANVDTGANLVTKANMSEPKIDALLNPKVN
Description: as §1, §2

SMc04259-RO = assay: SMc04259-RO, FRET ratio change on ligand; type: binding, Sinorhizobium meliloti
Description: as §1
as §2, with “Non-linear regression was used to fit the curves using SigmaPlot 11 (Systat Software Inc.) (Hill equation, 4 Parameters, b = 1). All measurements were done in quadruplicate.” left out

`O=P(O)(O)O[C@H]1[C@H](OP(=O)(O)O)[C@@H](OP(=O)(O)O)[C@H](OP(=O)(O)O)[C@@H](OP(=O)(O)O)[C@H]1OP(=O)(O)O` [phytic acid] was tested, and the “reaction of biosensor with compound (FRET)” value (from here on “reaction of biosensor”) (SMb20712-CY) was “did not react”.
With `O=C(O)CC(=O)O` [malonate] the “change in FRET ratio on addition of compound” value (rcc03024-CY (DctP)) was “no change in FRET ratio”.
With `O=C(O)c1ccccc1` [benzoic acid] the “change in FRET ratio on addition of compound” value (SMb20036-CY) was “no change in FRET ratio”.
For `O=C(O)/C=C\C(=O)O` [maleate], the “change in FRET ratio on addition of compound” value (rcc03024-CY (DctP)) was “no change in FRET ratio”.
`O=C(O)CCC(=O)O` [succinate] was tested, and the “ΔFRET on saturation (%)” value (rcc03024-CY (DctP); change in FRET ratio on ligand binding) was −2.7±0.2%, the Kd (rcc03024-CY (DctP)) was 0.036 µM and the “change in FRET ratio on binding ligand” value (rcc03024-RO) was “no change in FRET ratio”.
For `CC(=O)N[C@H]1[C@H]([C@H](O)[C@H](O)CO)OC(O)(C(=O)O)C[C@@H]1O` (stereo partly shown) [N-acetyl-5-neuraminic acid], the “change in FRET ratio on addition of compound” value (SMb20036-CY) was “no change in FRET ratio”.
In the case of `O=C(O)[C@]1(O)C[C@@H](O)[C@@H](O)[C@H](O)C1` [D-quinic acid], the “difference in the affinity for D-quinic acid compared with that for shikimic acid” value (SMb20036-CY) is reported as > 15,000 fold, the Kd (SMb20036-CY; pCYS (pLMB229), Tris-HCl pH 8.5) is reported as 0.0059 µM and the “change in FRET ratio on binding ligand” value (SMb20036 FBS-RO version) is reported as “no change in FRET ratio”.
With `OC[C@H]1O[C@@H](O[C@@H]2[C@@H](CO)OC(O)(CO)[C@H]2O)[C@H](O)[C@@H](O)[C@H]1O` (mixture of isomers) [lactulose] the “change in FRET with compound” value (SMc04259-CY) was “no change in FRET”.
With `O=C(O)c1cc(O)c(O)c(O)c1` [gallic acid] the “change in FRET ratio on addition of compound” value (SMb20036-CY) was “no change in FRET ratio”.
In the case of `C[C@H](O)[C@H](O)[C@@H](O)[C@@H](O)C=O` [L-rhamnose], the “difference in affinity of SMc02324 for L-rhamnose compared to L-fucose” value (SMc02324-CY) is reported as “three order-magnitude difference”, the Kd (SMc02324-CY; SMc02324-CY, pCYS (pLMB291), Tris-HCl pH 8.5) is reported as 0.0073 µM and the Kd (SMc02324-RO) is reported as 0.0069 µM. The Kd (SMc02774-CY; pCYS (pLMB292), Tris-HCl pH 8.5) was 1.6 µM.
For `OC[C@H]1OC(O)[C@@H](O)[C@@H](O)[C@@H]1O` (stereo partly shown) [mannose], the “change in FRET with compound” value (SMc04259-CY) was “no change in FRET”.
In the case of `[2H]C(=O)C[C@H](O)[C@H](O)CO` [deoxy-D-ribose], the “reaction of biosensor” value (SMc02324-CY; SMc02324-CY) is reported as “did not react”.
For gentiobiose, the “change in FRET ratio on binding ligand” value (SMc04259-RO) was “no change in FRET ratio”.
In the case of `OC[C@H]1O[C@H](O[C@H]2[C@H](O)[C@@H](O)[C@H](O)O[C@@H]2CO)[C@H](O)[C@@H](O)[C@@H]1O` [maltose], the “change in FRET with compound” value (SMc04259-CY) is reported as “no change in FRET”.
`C[C@H]1OC(O)[C@H](O)[C@@H](O)[C@H]1O` (stereo partly drawn) [D-fucose] was tested, and the “reaction of biosensor” value (SMc02324-CY; SMc02324-CY) was “did not react” and the “reaction of biosensor” value (SMc02774-CY) was “did not react”.
Work on `O=C(O)CC(=O)C(=O)O` [oxaloacetate] yielded a Kd (rcc03024-CY (DctP)) of 16 µM.
With `O=P(O)(O)O[C@@H]1[C@H](O)[C@H](O)[C@@H](OP(=O)(O)O)[C@H](OP(=O)(O)O)[C@H]1O` [inositol 1,4,5-trisphosphate] the “reaction of biosensor” value (SMb20712-CY) was “did not react”.
